Organism: Rattus norvegicus
Experiment: DrugMatrix - Regimen: Daily Repeat
Type: toxicity, organism-based, Sprague-Dawley
Parameters: regimen Daily Repeat, gender Male, age 6-8 weeks
Settings: in vivo, po, 1500 mg/kg, route oral GAVAGE, dose level High, vehicle .5 % CMC; for ABSOLUTE BASOPHIL / ABSOLUTE EOSINOPHIL / ABSOLUTE LYMPHOCYTE / ABSOLUTE MONOCYTE / ABSOLUTE SEGMENTED NEUTROPHIL / BASOPHIL / EOSINOPHIL / ERYTHROCYTE COUNT / HEMATOCRIT / HEMOGLOBIN / LEUKOCYTE COUNT / LYMPHOCYTE / MEAN CORPUSCULAR HEMOGLOBIN / MEAN CORPUSCULAR HEMOGLOBIN CONCENTRATION / MEAN CORPUSCULAR VOLUME / MONOCYTE / NEUTROPHIL / NUCLEATED RED BLOOD CELLS / PLATELET COUNT: tissue Blood; for ALANINE AMINOTRANSFERASE / ALBUMIN / ALKALINE PHOSPHATASE / ASPARTATE AMINOTRANSFERASE / BLOOD UREA NITROGEN / CARBON DIOXIDE / CHLORIDE / CHOLESTEROL / CREATINE PHOSPHOKINASE / CREATININE / GLUCOSE / LACTATE DEHYDROGENASE / LIPASE / PHOSPHORUS / POTASSIUM / SODIUM / TOTAL BILIRUBIN / TOTAL PROTEIN / URIC ACID: tissue Plasma

Compound: CCOC(=O)[C@H](CCc1ccccc1)N[C@@H](C)C(=O)N1[C@H](C(=O)O)C[C@@H]2CCC[C@@H]21
- ABSOLUTE BASOPHIL (72 h, time 3 day): 0 CELLS/uL
- ABSOLUTE EOSINOPHIL (72 h, time 3 day): 134.33 CELLS/uL
- ABSOLUTE LYMPHOCYTE (72 h, time 3 day): 16266.67 CELLS/uL
- ABSOLUTE MONOCYTE (72 h, time 3 day): 0 CELLS/uL
- ABSOLUTE SEGMENTED NEUTROPHIL (72 h, time 3 day): 1032.33 CELLS/uL
- BASOPHIL (72 h, time 3 day): 0%
- EOSINOPHIL (72 h, time 3 day): 0.67%
- ERYTHROCYTE COUNT (72 h, time 3 day): 5.12 x10E6/uL
- HEMATOCRIT (72 h, time 3 day): 34.53%
- HEMOGLOBIN (72 h, time 3 day): 13.77 G/DL
- LEUKOCYTE COUNT (72 h, time 3 day): 17.43 x10E3/uL
- LYMPHOCYTE (72 h, time 3 day): 93%
- MEAN CORPUSCULAR HEMOGLOBIN (72 h, time 3 day): 26.9 pg
- MEAN CORPUSCULAR HEMOGLOBIN CONCENTRATION (72 h, time 3 day): 39.93 G/DL
- MEAN CORPUSCULAR VOLUME (72 h, time 3 day): 67.37 fL
- MONOCYTE (72 h, time 3 day): 0%
- NEUTROPHIL (72 h, time 3 day): 6.33%
- NUCLEATED RED BLOOD CELLS (72 h, time 3 day): 0.33 /100WBC
- PLATELET COUNT (72 h, time 3 day): 1317.67 x10E3/uL
- ALANINE AMINOTRANSFERASE (72 h, time 3 day): 41.33 u/L
- ALBUMIN (72 h, time 3 day): 4.1 G/DL
- ALKALINE PHOSPHATASE (72 h, time 3 day): 454.33 u/L
- ASPARTATE AMINOTRANSFERASE (72 h, time 3 day): 81.67 u/L
- BLOOD UREA NITROGEN (72 h, time 3 day): 30.67 mg/dL
- CARBON DIOXIDE (72 h, time 3 day): 21.67 mmol/L
- CHLORIDE (72 h, time 3 day): 104.67 MEQ/L
- CHOLESTEROL (72 h, time 3 day): 56.67 mg/dL
- CREATINE PHOSPHOKINASE (72 h, time 3 day): 460 u/L
- CREATININE (72 h, time 3 day): 0.26 mg/dL
- GLUCOSE (72 h, time 3 day): 192.67 mg/dL
- LACTATE DEHYDROGENASE (72 h, time 3 day): 379.67 u/L
- LIPASE (72 h, time 3 day): 8 u/L
- PHOSPHORUS (72 h, time 3 day): 12.53 mg/dL
- POTASSIUM (72 h, time 3 day): 7.28 MEQ/L
- SODIUM (72 h, time 3 day): 143.5 MEQ/L
- TOTAL BILIRUBIN (72 h, time 3 day): 0.17 mg/dL
- TOTAL PROTEIN (72 h, time 3 day): 5.9 G/DL
- URIC ACID (72 h, time 3 day): 1.93 mg/dL
- ABSOLUTE BASOPHIL (120 h, time 5 day): 0 CELLS/uL
- ABSOLUTE EOSINOPHIL (120 h, time 5 day): 56.33 CELLS/uL
- ABSOLUTE LYMPHOCYTE (120 h, time 5 day): 15250 CELLS/uL
- ABSOLUTE MONOCYTE (120 h, time 5 day): 259.67 CELLS/uL
- ABSOLUTE SEGMENTED NEUTROPHIL (120 h, time 5 day): 1034 CELLS/uL
- BASOPHIL (120 h, time 5 day): 0%
- EOSINOPHIL (120 h, time 5 day): 0.33%
- ERYTHROCYTE COUNT (120 h, time 5 day): 5.8 x10E6/uL
- HEMATOCRIT (120 h, time 5 day): 35.77%
- HEMOGLOBIN (120 h, time 5 day): 14.07 G/DL
- LEUKOCYTE COUNT (120 h, time 5 day): 16.6 x10E3/uL
- LYMPHOCYTE (120 h, time 5 day): 92%
- MEAN CORPUSCULAR HEMOGLOBIN (120 h, time 5 day): 24.3 pg
- MEAN CORPUSCULAR HEMOGLOBIN CONCENTRATION (120 h, time 5 day): 39.37 G/DL
- MEAN CORPUSCULAR VOLUME (120 h, time 5 day): 61.63 fL
- MONOCYTE (120 h, time 5 day): 1.67%
- NEUTROPHIL (120 h, time 5 day): 6%
- NUCLEATED RED BLOOD CELLS (120 h, time 5 day): 0 /100WBC
- PLATELET COUNT (120 h, time 5 day): 1413.67 x10E3/uL
- ALANINE AMINOTRANSFERASE (120 h, time 5 day): 55.33 u/L
- ALBUMIN (120 h, time 5 day): 4.33 G/DL
- ALKALINE PHOSPHATASE (120 h, time 5 day): 583.33 u/L
- ASPARTATE AMINOTRANSFERASE (120 h, time 5 day): 89.33 u/L
- BLOOD UREA NITROGEN (120 h, time 5 day): 31.33 mg/dL
- CARBON DIOXIDE (120 h, time 5 day): 29 mmol/L
- CHLORIDE (120 h, time 5 day): 102 MEQ/L
- CHOLESTEROL (120 h, time 5 day): 35 mg/dL
- CREATINE PHOSPHOKINASE (120 h, time 5 day): 314.67 u/L
- CREATININE (120 h, time 5 day): 0.26 mg/dL
- GLUCOSE (120 h, time 5 day): 150.33 mg/dL
- LACTATE DEHYDROGENASE (120 h, time 5 day): 374.33 u/L
- LIPASE (120 h, time 5 day): 8.67 u/L
- PHOSPHORUS (120 h, time 5 day): 11.03 mg/dL
- POTASSIUM (120 h, time 5 day): 7.1 MEQ/L
- SODIUM (120 h, time 5 day): 143.93 MEQ/L
- TOTAL BILIRUBIN (120 h, time 5 day): 0.27 mg/dL
- TOTAL PROTEIN (120 h, time 5 day): 6.3 G/DL
- URIC ACID (120 h, time 5 day): 1.6 mg/dL

— ChEMBL document CHEMBL3885881, “DrugMatrix”
